Source: patent publication US20230116080A1, “METHOD FOR CONTROLLING THE GROWTH OF UNDESIRABLE VEGETATION” (UPL Limited, priority 2021, published 2023)

System: weedy Eleusine indica
Assay: Post-emergence herbicidal efficacy of L-glufosinate, other herbicides and their combinations in greenhouse trials (observed control vs Colby expected)
Type: in vivo
Conditions: for Control %: Table 1
Protocol: Evaluation of Post-Emergence Herbicidal Activity of Composition Under […]
Greenhouse trials were carried out to evaluate the efficacy of the combination of L-glufosinate and the other herbicides on weedy Eleusine indica.
The soil used was sandy clay loam—Sand: 68.0%; Silt: 8.0%; Clay: 24.0%.
All treatments were in 3 replications per treatment with a spray volume of […].
The expected efficacy of a combination of L-glufosinate and the other herbicides was calculated using the well-established Colby method. Any difference between the observed and “expected” efficacy could be attributed to synergy between the two compounds.
In the Colby method, the expected (or predicted) response of a combination of herbicides is calculated by taking the product of the observed response for each individual component of the combination when applied alone, divided by 100, and subtracting this value from the sum of the observed response for each component when applied alone. An unexpected enhancement in efficacy of the combination is then determined by comparing the observed response of the combination to the expected (or predicted) response as calculated from the observed response of each individual component alone. If the observed response of the combination is greater than the expected (or predicted) response, or stated conversely, if the difference between the observed and expected response is greater than zero, then the combination is said to be synergistic or unexpectedly effective (Colby, S. R., Weeds, 1967(15), p. 20-22). The Colby method requires only a single dose of each herbicide applied alone and the mixture of both doses. The formula used to calculate the expected efficacy (EE) which was compared with the observed efficacy (OE) to determine the efficacy of the present invention is explained herein below:
The expected efficacy for a combination of two active ingredients is as follows:
The expected efficacy for a combination of three active ingredients is as follows:
The percentage efficacy was calculated after 7, 14, 21, 28, 35 days of applications (DAA). The target weed was weedy Eleusine indica, and the concentration of the herbicide and the results are recorded in the table 1 below:
The percentage efficacy was calculated after 7 and 35 days of application (DAA). The target weed was weedy Eleusine indica, and the concentration of the herbicide and the results are recorded in the table 2 below:
The percentage efficacy was calculated after 3, 7, 14, 21, 28, 35 days of application (DAA). The target weed was weedy Eleusine indica, and the concentration of the herbicide and the results are recorded in the table 3 below:
The target weed was weedy Eleusine indica, and the concentration of the herbicide and the results are recorded in the table 4 below:
The percentage efficacy was calculated after 7, 14, 21, 28 and 35 days of application (DAA). The target weed was weedy Eleusine indica, and the concentration of the herbicide and the results are recorded in the table 5 below:
The percentage efficacy was calculated after 3, 7, 28, 35 days of application (DAA). The target weed was weedy Eleusine indica, and the concentration of the herbicide and the results are recorded in the table 6 below: […]

[1] = Table 4, 3 DAA, g ai/h: L-glufosinate 150, 2,4-D 204
[2] = Table 4, 7 DAA, g ai/h: L-glufosinate 150, 2,4-D 204
[3] = Table 4, 14 DAA, g ai/h: L-glufosinate 150, 2,4-D 204
[4] = Table 4, 21 DAA, g ai/h: L-glufosinate 150, 2,4-D 204
[5] = Table 4, 28 DAA, g ai/h: L-glufosinate 150, 2,4-D 204
[6] = Table 4, 35 DAA, g ai/h: L-glufosinate 150, 2,4-D 204
[7] = 7 DAA, dose a.i. g/h: L-glufosinate 150, oxyfluorfen 107.1, imazethapyr 75, carfentrazone 7.5
[8] = 14 DAA, dose a.i. g/h: L-glufosinate 150, oxyfluorfen 107.1, imazethapyr 75, carfentrazone 7.5
[9] = 21 DAA, dose a.i. g/h: L-glufosinate 150, oxyfluorfen 107.1, imazethapyr 75, carfentrazone 7.5
[10] = 28 DAA, dose a.i. g/h: L-glufosinate 150, oxyfluorfen 107.1, imazethapyr 75, carfentrazone 7.5
[11] = 35 DAA, dose a.i. g/h: L-glufosinate 150, oxyfluorfen 107.1, imazethapyr 75, carfentrazone 7.5
[12] = Table 6, 3 DAA, g ai/h: L-glufosinate 150, clethodim 45
[13] = Table 6, 7 DAA, g ai/h: L-glufosinate 150, clethodim 45
[14] = Table 6, 28 DAA, g ai/h: L-glufosinate 150, clethodim 45
[15] = Table 6, 35 DAA, g ai/h: L-glufosinate 150, clethodim 45
[16] = Table 3, 3 DAA, g ai/h: L-glufosinate 150, flumioxazin 30
[17] = Table 3, 7 DAA, g ai/h: L-glufosinate 150, flumioxazin 30
[18] = Table 3, 14 DAA, g ai/h: L-glufosinate 150, flumioxazin 30
[19] = Table 3, 21 DAA, g ai/h: L-glufosinate 150, flumioxazin 30
[20] = Table 3, 28 DAA, g ai/h: L-glufosinate 150, flumioxazin 30
[21] = Table 3, 35 DAA, g ai/h: L-glufosinate 150, flumioxazin 30
[22] = Table 2, 7 DAA, g ai/h: L-glufosinate 150, glyphosate 379
[23] = Table 2, 35 DAA, g ai/h: L-glufosinate 150, glyphosate 379
[24] = Table 7, 7 DAA, g ai/h: L-glufosinate 150, haloxyfop 50
[25] = Table 5, 7 DAA, g ai/h: L-glufosinate 150, triclopyr 288
[26] = Table 5, 14 DAA, g ai/h: L-glufosinate 150, triclopyr 288
[27] = Table 5, 21 DAA, g ai/h: L-glufosinate 150, triclopyr 288
[28] = Table 5, 28 DAA, g ai/h: L-glufosinate 150, triclopyr 288
[29] = Table 5, 35 DAA, g ai/h: L-glufosinate 150, triclopyr 288

SMILES: O=C(O)COc1ccc(Cl)cc1Cl [2,4-D]
- % control [1]: 5%
- % control [2]: 4%
- % control [3]: 6.7%
- % control [4]: 5%
- % control [5]: 5%
- % control [6]: 0%

SMILES: Cc1nn(-c2cc(CC(Cl)C(=O)O)c(Cl)cc2F)c(=O)n1C(F)F (stereo not shown) [Carfentrazone, carfentrazone]
- Control % [7]: 14%
- Control % (7 DAA, dose a.i. g/h: carfentrazone 9.0, alone or with L-glufosinate 150): 16.7%
- Control % [8]: 12.3%
- Control % (14 DAA, dose a.i. g/h: carfentrazone 9.0, alone or with L-glufosinate 150): 16.7%
- Control % [9]: 11%
- Control % (21 DAA, dose a.i. g/h: carfentrazone 9.0, alone or with L-glufosinate 150): 14%
- Control % [10]: 7.7%
- Control % (28 DAA, dose a.i. g/h: carfentrazone 9.0, alone or with L-glufosinate 150): 12.3%
- Control % [11]: 0%
- Control % (35 DAA, dose a.i. g/h: carfentrazone 9.0, alone or with L-glufosinate 150): 6.7%

SMILES: CCSC(C)CC1CC(=O)C(/C(CC)=N/OC/C=C/Cl)=C(O)C1 (stereo not shown) [Clethodim, clethodim]
- % control [12]: 6.7%
- % control [13]: 15%
- % control [14]: 81.7%
- % control [15]: 84.3%

SMILES: C#CCN1C(=O)COc2cc(F)c(N3C(=O)C4=C(CCCC4)C3=O)cc21 [Flumioxazin, flumioxazin]
- % control [16]: 5.0%
- % control [17]: 28.3%
- % control [18]: 21.7%
- % control [19]: 10%
- % control [20]: 5%
- % control [21]: 0%

SMILES: O=C(O)CNCP(=O)(O)O [Glyphosate, glyphosate]
- % control [22]: 28.3%
- % control [23]: 81.7%

SMILES: CC(Oc1ccc(Oc2ncc(C(F)(F)F)cc2Cl)cc1)C(=O)O (stereo not shown) [Haloxyfop, haloxyfop]
- % control [24]: 25%

SMILES: CCc1cnc(C2=NC(C)(C(C)C)C(=O)N2)c(C(=O)O)c1 (stereo not shown) [Imazethapyr, imazethapyr]
- Control % [7]: 8.3%
- Control % [8]: 12%
- Control % [9]: 12.7%
- Control % [10]: 12.7%
- Control % [11]: 10%

SMILES: CP(=O)(O)CC[C@H](N)C(=O)O [L-glufosinate]
- Control % [7]: 43.3%
- Control % [8]: 41.3%
- Control % [9]: 37.3%
- Control % [10]: 28.3%
- Control % [11]: 25.3%
- % control [22]: 50.7%
- % control [23]: 54.3%
- % control [16]: 12.3%
- % control [17]: 50.7%
- % control [18]: 65.0%
- % control [19]: 64.3%
- % control [20]: 59.3%
- % control [21]: 54.3%
- % control [1]: 12.3%
- % control [2]: 50.7%
- % control [3]: 65.0%
- % control [4]: 64.3%
- % control [5]: 59.3%
- % control [6]: 54.3%
- % control [25]: 50.7%
- % control [26]: 65.0%
- % control [27]: 64.3%
- % control [28]: 59.3%
- % control [29]: 54.3%
- % control [12]: 12.3%
- % control [13]: 50.7%
- % control [14]: 59.3%
- % control [15]: 54.3%
- % control [24]: 50.7%

SMILES: CCOc1cc(Oc2ccc(C(F)(F)F)cc2Cl)ccc1[N+](=O)[O-] [Oxyfluorfen, oxyfluorfen]
- Control % [7]: 44%
- Control % [8]: 40%
- Control % [9]: 37%
- Control % [10]: 28.3%
- Control % [11]: 23.3%

SMILES: O=C(O)COc1nc(Cl)c(Cl)cc1Cl [Triclopyr, triclopyr]
- % control [25]: 8%
- % control [26]: 13.3%
- % control [27]: 6.7%
- % control [28]: 6.7%
- % control [29]: 6.7%
